Reference: patent publication US8580809B2, “Filamin A-binding anti-inflammatory analgesic” (Pain Therapeutics, Inc., priority 2009, dated 2013)

Target: T1, mu opiate receptor (MOR) (Rattus norvegicus, UniProt P33535)
T1 construct: from tissue; host or cells: rat striatal membrane preparation
Assay: MOR agonist activity using [35S]GTPγS binding assay in striatal membranes
Format: biochemical
Conditions: for MOR agonist activity, [35S]GTPγS binding to Gαo, FLNA-binding compound as agonist 0.1 μM: 0.1 μM compound; for MOR agonist activity, [35S]GTPγS binding to Gαo, FLNA-binding compound as agonist 0.1 μM / MOR agonist activity, [35S]GTPγS binding to Gαo, FLNA-binding compound as agonist 1 μM: striatal membranes; for MOR agonist activity, [35S]GTPγS binding to Gαo, 1 μM + BFNA: 1 μM compound + 1 μM β-funaltrexamine; for MOR agonist activity, [35S]GTPγS binding to Gαo, FLNA-binding compound as agonist 1 μM: 1 μM compound
Protocol: To assess the mu opiate receptor (MOR) agonist activity of positive compounds from the FLNA screening, compounds were tested in a [^35S]GTPγS binding assay using striatal membranes.
Striatal tissue was homogenized in 10 volumes of ice cold 25 mM HEPES buffer, pH 7.4, which contained 1 mM EGTA, 100 mM sucrose, 50 μg/ml leupeptin, 0.04 mM PMSF, 2 μg/ml soybean trypsin inhibitor and 0.2% 2-mercaptoethanol. The homogenates were centrifuged at 800×g for 5 minutes and the supernatants were centrifuged at 49,000×g for 20 minutes.
The resultant striatal membrane preparation (200 μg) was admixed and maintained (incubated) at 30° C. for 5 minutes in reaction buffer as above that additionally contained 1 mM MgCl2 and 0.5 nM [^35S]GTPγS (0.1 μCi/assay, PerkinElmer Life and Analytical Sciences) in a total volume of 250 μl and continued for 5 minutes in the absence or presence of 0.1-10 μM of an assayed compound of interest. The reaction was terminated by dilution with 750 μl of ice-cold reaction buffer that contained 20 mM MgCl2 and 1 mM EGTA and immediate centrifugation at 16,000×g for 5 minutes.
The resulting pellet was solubilized by sonicating for 10 seconds in 0.5 ml of immunoprecipitation buffer containing 0.5% digitonin, 0.2% sodium cholate and 0.5% NP-40. Normal rabbit serum (1 μl) was added to 1 ml of lysate and incubated at 25° C. for 30 minutes. Nonspecific immune complexes were removed by incubation with 25 μl of protein A/G-conjugated agarose beads at 25° C. for 30 minutes followed by centrifugation at 5,000×g at 4° C. for 5 minutes. The supernatant was divided and separately incubated at 25° C. for 30 minutes with antibodies raised against Gαo proteins (1:1,000 dilutions).
The immunocomplexes so formed were collected by incubation at 25° C. for 30 minutes with 40 μl of agarose-conjugated protein A/G beads and centrifugation at 5,000×g at 4° C. for 5 minutes. The pellet was washed and suspended in buffer containing 50 mM Tris-HCl, pH 8.0, and 1% NP-40. The radioactivity in the suspension was determined by liquid scintillation spectrometry. […] DAMGO (H-Tyr-D-Ala-Gly-N-MePhe-Gly-OH; 1 or 10 μM) was used as a positive control.

T1 sequence (P33535 whole entry): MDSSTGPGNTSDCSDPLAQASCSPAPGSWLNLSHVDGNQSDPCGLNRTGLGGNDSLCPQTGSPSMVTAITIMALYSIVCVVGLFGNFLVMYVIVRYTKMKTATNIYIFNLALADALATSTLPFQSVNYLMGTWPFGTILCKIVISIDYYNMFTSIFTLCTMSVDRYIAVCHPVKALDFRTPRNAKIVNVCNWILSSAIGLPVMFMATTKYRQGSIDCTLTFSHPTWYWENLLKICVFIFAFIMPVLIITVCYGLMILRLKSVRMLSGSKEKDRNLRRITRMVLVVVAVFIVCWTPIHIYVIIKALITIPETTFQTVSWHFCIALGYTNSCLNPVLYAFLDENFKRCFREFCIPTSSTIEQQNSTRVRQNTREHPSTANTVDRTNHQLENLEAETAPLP

Compound | MOR agonist activity, [35S]GTPγS binding to Gαo, FLNA-binding compound as agonist 0.1 μM [%] | MOR agonist activity, [35S]GTPγS binding to Gαo, 1 μM + BFNA [%] | MOR agonist activity, [35S]GTPγS binding to Gαo, FLNA-binding compound as agonist 1 μM [%]
COc1ccc(S(=O)(=O)N2CCC3(CC2)OCCN3S(=O)(=O)c2ccc(OC)cc2)cc1 [Compound 7866] | 152.3 | 62.4 | 308.2
Cc1ccc(S(=O)(=O)N2CCC3(CC2)OCCN3S(=O)(=O)c2ccc(C)cc2)cc1 [Compound C0001] | 129.3 | 33.9 | 184.3
COc1cccc(S(=O)(=O)N2CCC3(CC2)OCCN3S(=O)(=O)c2cccc(OC)c2)c1 [Compound C0002] | 88.4 | 3.9 | 93.8
COc1ccccc1S(=O)(=O)N1CCC2(CC1)OCCN2S(=O)(=O)c1ccccc1OC [Compound C0003] | 162.3 | 107.7 | 215.9
N#Cc1ccccc1S(=O)(=O)N1CCC2(CC1)OCCN2S(=O)(=O)c1ccccc1C#N [Compound C0004] | 122.0 | 65.8 | 228.4
O=S(=O)(c1cccc(OC(F)(F)F)c1)N1CCC2(CC1)OCCN2S(=O)(=O)c1cccc(OC(F)(F)F)c1 [Compound C0005] | 180.4 | 166.4 | 227.2
O=S(=O)(c1ccc(OC(F)(F)F)cc1)N1CCC2(CC1)OCCN2S(=O)(=O)c1ccc(OC(F)(F)F)cc1 [Compound C0006] | 121.5 | 4.6 | 204.0
CC(C)c1ccc(S(=O)(=O)N2CCC3(CC2)OCCN3S(=O)(=O)c2ccc(C(C)C)cc2)cc1 [Compound C0007] | 79.1 | 10.9 | 195.0
N#Cc1ccc(S(=O)(=O)N2CCC3(CC2)OCCN3S(=O)(=O)c2ccc(C#N)cc2)cc1 [Compound C0008] | 71.2 | 2.8 | 201.6
O=S(=O)(c1ccc(-c2ccccc2)cc1)N1CCC2(CC1)OCCN2S(=O)(=O)c1ccc(-c2ccccc2)cc1 [Compound C0010] | 136.5 | 89.1 | 307.0
O=S(=O)(c1ccc(C(F)(F)F)cc1)N1CCC2(CC1)OCCN2S(=O)(=O)c1ccc(C(F)(F)F)cc1 [Compound C0012] | 96.8 | 184.4 | 224.8
CC(=O)Nc1ccc(S(=O)(=O)N2CCC3(CC2)OCCN3S(=O)(=O)c2ccc(NC(C)=O)cc2)cc1 [Compound C0013] | 156.6 | 39.6 | 301.2
Cc1cccc(S(=O)(=O)N2CCC3(CC2)OCCN3S(=O)(=O)c2cccc(C)c2)c1 [Compound C0014] | 144.9 | 76.3 | 153.5
Cc1ccccc1S(=O)(=O)N1CCC2(CC1)OCCN2S(=O)(=O)c1ccccc1C [Compound C0015] | 138.7 | 126.8 | 204.7
